Results taken from patent publication US9243281B2, “Neuroprotective chemicals and methods for identifying and using same” (Board of Regents of The University of Texas System, priority 2013, dated 2016).

Assays:
[1] = tested on: hippocampal neurogenesis (Dentate Gyrus); assay: in vivo neurogenesis assay (BrdU+ cells in dentate gyrus); set-up: species or system mice; details: for Neurogenesis # BrdU+ Cells (X10E06)/mm3 Dentate Gyrus: living mice, vehicle (DMSO) 7.3
How it was run: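 Pools of ten compounds infused into the left ventricle of two adult mice per pool via cannula and mini-pump over one week, aimed at mid-nanomolar levels. Daily BrdU co-injected; brain sections stained for BrdU to count new dentate gyrus cells.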

p70 (NAMPT) = target: T1, p70 (NAMPT) (Homo sapiens, UniProt P43490); assay: binding competition for photo-crosslinking of P7C3-S326 to p70 in H2122 cells; details: 0.3 μM P7C3-S326 plus 5 μM competitor, p70 band intensity, P7C3-S326 alone compared with plus competitor, vehicle 1.0
T1 construct: endogenous in cells; host or cells: H2122 lung cancer cells
T1 sequence (P43490 whole entry): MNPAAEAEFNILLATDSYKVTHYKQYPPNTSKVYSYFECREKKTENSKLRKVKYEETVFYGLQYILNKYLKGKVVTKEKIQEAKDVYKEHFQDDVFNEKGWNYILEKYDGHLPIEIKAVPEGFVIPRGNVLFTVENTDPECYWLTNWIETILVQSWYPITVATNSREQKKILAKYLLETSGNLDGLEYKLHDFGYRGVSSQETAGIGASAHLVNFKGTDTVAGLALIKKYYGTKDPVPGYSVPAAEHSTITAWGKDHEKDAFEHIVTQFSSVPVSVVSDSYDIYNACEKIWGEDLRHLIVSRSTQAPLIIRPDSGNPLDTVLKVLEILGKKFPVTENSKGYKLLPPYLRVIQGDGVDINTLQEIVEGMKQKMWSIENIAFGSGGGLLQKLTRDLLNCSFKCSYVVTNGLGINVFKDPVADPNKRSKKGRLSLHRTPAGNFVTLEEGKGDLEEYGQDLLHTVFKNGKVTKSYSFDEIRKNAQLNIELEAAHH
How it was run: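 H2122 cells were co-treated with 0.3 μM P7C3-S326 and 5 uM competing P7C3 analogs for 2 hours at 37° C, then UV-crosslinked at 306 nm for 15 minutes. Lysates were clicked to a fluorescent dye and run on SDS-PAGE. The p70 band was quantified relative to the DMSO control.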

[2] = tested on: NAD levels in doxorubicin-treated U2OS cells; assay: NAD rebound assay in doxorubicin-treated cells (NAD/NADH Glo); format: cell-based; details: 0.5 μM doxorubicin 45 h
Experimental: FIG. 12. Five-point dose response curves (DRC) of all tested compounds in NAD rebound assay. […] Cellular NAD abundance was determined by NAD/NADH Glo assay kit.
Each chemical variant of P7C3 was co-incubated with doxorubicin on cultured U2OS cells at five doses (0.03 uM, 0.1 uM, 0.3 uM, 1 uM and 3 uM). After 45 hrs incubation, cells were assayed for intracellular levels of NAD (FIG. 12).
Assay was performed following the manufacturer's protocol. NAD/NADH-Glo reagent contains the NAD Cycling Enzyme that converts NAD+ to NADH. In the presence of NADH, the enzyme reductase reduces a proluciferin reductase substrate to form luciferin. Cells were grown in 96- or 384-well plates. 50 μl or 15 μl of NAD/NADH-Glo™ Detection Reagent were added to each well. The resulting luminescence signals were measured by Tecan plate reader or EnVison multimode plate reader (Perkin Elmer).

Human NAMPT = target: T2, Human NAMPT (Homo sapiens, UniProt P43490); assay: in vitro NAMPT coupled-enzyme assay (NADH at OD340 nm); format: biochemical; details: for NAMPT activation: relative reaction rate normalized by the control reaction run prior to compound addition, vehicle 0.98; for activation of recombinant NAMPT enzyme: coupled assay NAMPT, NMNAT, ADH
T2 construct: made in house; host or cells: E. coli
T2 sequence (P43490 whole entry): as above
Experimental: FIGS. 7A-7C. […] (FIG. 7A) P7C3-A20 was incubated at indicated concentrations in a reaction coupled with three enzymes; NAMPT, NMNAT, and ADH (Experimental Procedures). NAMPT activity was recorded for the indicated period of time at OD340 nm by measuring NADH appearance, leading to the indicated concentration-time plot. […] (FIG. 7B) Analysis of the activities of thirty P7C3 analogs was performed to assess their effects on NAMPT enzymatic activity. The reaction rate was calculated as the slope of the concentration-time curve. Relative reaction rate was normalized by the control reaction run prior to compound addition. Data represents the mean of experimental duplicates. Scatter graphs were plotted to compare the ability of compounds to activate NAMPT relative to their ability to compete away P7C3-S326 crosslinking (top scatter plot), ability to protect cells from doxorubicin-mediated toxicity (middle scatter plot), or ability to facilitate NAD restoration in doxorubicin-treated cells (bottom scatter plot). […] Data are expressed as mean±SD of duplicate independent assays.
The enzymatic activity of recombinant NAMPT was monitored in a coupled assay wherein nicotinamide conversion to NMN was followed by sequential production of NAD (via the NMNAT enzyme) and NADH (via alcohol dehydrogenase). To minimize variation, a control reaction was run in each assay prior to compound addition.
Briefly, NAMPT first converted nicotinamide to NMN, which was followed by sequential production of NAD via nicotinamide mononucleotide adenylyl-transferase (NMNAT). NAD was then reduced to NADH by alcohol dehydrogenase (Sigma) using alcohol as the substrate. The resulting NADH was monitored by OD340 nm. […] 10 mM stocks of P7C3 analogs in DMSO were further diluted in ethanol prior to applying to the reaction. To minimize variation, a control reaction was run in each assay prior to compound addition.

U2OS cells = assay: doxorubicin toxicity (dox:tox) protection assay, Cell Titer Glo cell survival; format: cell-based; details: cultured U2OS cells
Source text: FIGS. 2A-2D. […] (FIG. 2A) Chemical structure of P7C3-S326. […] (FIG. 2C) Formulas used for calculating doxorubicin toxicity (dox:tox) protection activity. Protection activity is expressed by (Sinf−S0)/AC50 in the twelve-point dose response curve (DRC) corresponding to each compound, wherein both efficacy and potency of compounds were considered. Sinf represents the expected maximal protection. S0 is the baseline. […] In the photo-crosslinking assays, the p70 band intensity was quantified by Image J, and compared the sample of P7C3-S326 alone with that of P7C3-S326 plus competitor. Pearson correlation coefficient (r) and two tailed P value were determined by GraphPad Prism 6 and Spearman Rank Correlation (v1.0.1) software.
FIG. 10. Twelve-point dose response curves (DRC) of all tested compounds in doxorubicin toxicity protection assay. […] Cell viability was determined by Cell Titer Glo assay kit.
Cell survival assay was performed in 96-well plates using CellTiter-Glo Luminescent Cell Viability Assay kit (Promega) that measures cellular ATP content. The CellTiter-Glo reagent was diluted by adding 2 volumes of PBS containing 1% Triton X-100. 50 μl of diluted reagent was directly added to 100 μl of cell culture medium per well. Plates were incubated at room temperature for 10 minutes. Luminescence was recorded by Tecan […]luor Plus reader (Tecan). Cell survival was presented as the percentage of viable cells compared with untreated control, and mean±SD was calculated from duplicates. The dox:tox assay of P7C3 analogs was carried out in the HTS Core (University of Texas Southwestern Medical Center) using the EnVison multimode plate reader (Perkin Elmer).

[3] = tested on: neurons in living animals; details: neurogenesis, MPTP model, concussive blast injury; cited from earlier work

Structure (SMILES)	Neurogenesis # BrdU+ Cells (X10E06)/mm3 Dentate Gyrus [1]	Binding competition (p70 (NAMPT))	rebound of NAD levels (NAD/NADH-Glo kit) [2]	NAMPT activation (Human NAMPT)	activity in the in vivo neurogenesis assay ([1]; mouse, in vivo)	protection from doxorubicin-mediated toxicity (dox:tox assay) (U2OS cells)	activation of recombinant NAMPT enzyme (Human NAMPT)	activity in the three in vivo assays of neuroprotection [3]
Nc1ccc[n+](CC(O)Cn2c3ccc(Br)cc3c3cc(Br)ccc32)c1 (stereo not drawn) [S6]	8.4 (X10E06)/mm3	1.4	no rebound at all	–	–	–	–	–
C#CCN(C)[C@H](C)Cc1ccccc1 [S117, Selegiline, reference compound]	8.1 (X10E06)/mm3	1.0	no rebound at all	–	–	–	–	–
COc1cccc(S(=O)(=O)CC(F)Cn2c3ccc(Br)cc3c3cc(Br)ccc32)c1 (stereo not drawn) [S81]	12.6 (X10E06)/mm3	1.2	–	0.96	–	–	–	–
C#CCOc1ccc(C(=O)c2ccc(C(=O)NCC(F)Cn3c4ccc(Br)cc4c4cc(Br)ccc43)cc2)cc1 (stereo not drawn) [S326, N-(3-(3,6-dibromo-9H-carbazol-9-yl)-2-fluoropropyl)-4-(4-(prop-2-yn-1-yloxy)benzoyl)benzamide]	–	–	–	1.10	active	active	–	–
N#CCn1c2ccc(Br)cc2c2cc(Br)ccc21 [S235]	11.7 (X10E06)/mm3	1.8	–	0.97	–	–	–	–
COc1cccc(NCC(F)(F)Cn2c3ccc(Br)cc3c3cc(Br)ccc32)c1 [S59]	10.7 (X10E06)/mm3	1.2	–	1.02	–	–	–	–
O=S(=O)(CC(F)Cn1c2ccc(Br)cc2c2cc(Br)ccc21)c1cccc(O)c1 (stereo not drawn) [S101]	9.9 (X10E06)/mm3	2.4	–	1.12	–	–	–	–
c1ccc2c(c1)CCc1ccccc1N2 [S212]	10.3 (X10E06)/mm3	1.0	–	1.04	–	–	–	–
COc1cccc(N(C)CC(F)Cn2c3ccc(Br)cc3c3cc(Br)ccc32)c1 (stereo not drawn) [S11]	12.8 (X10E06)/mm3	2.0	–	1.21	–	–	–	–
CS(=O)(=O)NC(=O)Cn1c2ccc(Br)cc2c2cc(Br)ccc21 [S232]	8.4 (X10E06)/mm3	0.9	–	1.00	–	–	–	–
Brc1ccc2c(c1)c1cc(Br)ccc1n2CCCNc1ccccc1 [S33]	11.6 (X10E06)/mm3	2.8	–	1.12	–	–	–	–
Cl.NCC(F)Cn1c2ccc(Br)cc2c2cc(Br)ccc21 (stereo not drawn) [S217]	12.3 (X10E06)/mm3	2.6	–	0.89	–	–	–	–
[N-]=[N+]=NCC(F)Cn1c2ccc(Br)cc2c2cc(Br)ccc21 (stereo not drawn) [S189]	6.9 (X10E06)/mm3	3.6	–	1.06	–	–	–	–
COCCOCCOc1ccc(NCC(F)Cn2c3ccc(Br)cc3c3cc(Br)ccc32)cc1 (stereo not drawn) [S66]	9.7 (X10E06)/mm3	3.5	–	1.21	–	–	–	–
COc1ccc(S(=O)(=O)CC(F)Cn2c3ccc(Br)cc3c3cc(Br)ccc32)cc1 (stereo not drawn) [S83]	12.5 (X10E06)/mm3	1.0	–	1.01	–	–	–	–
N#Cc1[nH]c2ccc(Br)cc2c1N [S222]	15.1 (X10E06)/mm3	1.3	–	1.02	–	–	–	–
O=C(Cn1c2ccc(Br)cc2c2cc(Br)ccc21)NS(=O)(=O)c1ccccc1 [S230]	15.3 (X10E06)/mm3	1.0	–	1.02	–	–	–	–
Brc1ccc2c(c1)c1cc(Br)ccc1n2Cc1nnn[nH]1 [S233]	7.3 (X10E06)/mm3	0.9	–	0.88	–	–	–	–
COc1cccc(NCC(F)Cn2c3ccc(Br)cc3c3cc(Br)ccc32)n1 (racemic) [S243, N-(3-(3,6-dibromo-9H-carbazol-9-yl)-2-fluoropropyl)-6-methoxypyridin-2-amine]	–	2.2	NAD rebound	1.26	–	–	more active than the (+)P7C3-S243 enantiomer	–
COc1cccc(NC(SC)C(=O)Cn2c3ccc(Br)cc3c3cc(Br)ccc32)c1 (stereo not drawn) [S4]	11.7 (X10E06)/mm3	1.4	–	1.01	–	–	–	–
COc1cccc(NCC(Cn2c3ccc(Br)cc3c3cc(Br)ccc32)OC)c1 (stereo not drawn) [S13]	11.6 (X10E06)/mm3	1.7	–	1.21	–	–	–	–
COc1cccc(NC[C@@H](F)Cn2c3ccc(Br)cc3c3cc(Br)ccc32)n1 [(+)-S243]	10.0 (X10E06)/mm3	4.2	–	1.13	–	considerably less active	–	far less active
COc1cccc(NCC(=O)Cn2c3ccc(Br)cc3c3cc(Br)ccc32)c1 [S3]	9.2 (X10E06)/mm3	2.3	–	1.06	–	–	–	–
O=S(=O)(CC(F)Cn1c2ccc(Br)cc2c2cc(Br)ccc21)c1ccccc1 (stereo not drawn) [S53]	17.1 (X10E06)/mm3	1.4	–	1.05	–	–	–	–
COc1cccc(N2CC(Cn3c4ccc(Br)cc4c4cc(Br)ccc43)OC2=O)c1 (stereo not drawn) [S12]	10.8 (X10E06)/mm3	2.4	–	1.24	–	–	–	–
COc1cccc(NC[C@H](F)Cn2c3ccc(Br)cc3c3cc(Br)ccc32)n1 [(−)-S243, (S)—N-(3-(3,6-Dibromo-9H-carbazol-9-yl)-2-fluoropropyl)-6-methoxypyridin-2-amine]	18.1 (X10E06)/mm3	4.8	–	1.33	–	protective	more active in stimulating NAMPT than the racemix mix	active
